{
  "source": "patent US20240287470A1",
  "about": "(priority 2023, published 2024)",
  "key": {"HEK293 cells [1]": {"system": "HEK293 cells", "format": "cell-based", "conditions": "detergent 0.5% w/v, then 0.2% DB"}, "HEK293 cells [2]": {"system": "HEK293 cells", "assay": "CHAPS evaluated at larger scale (1 L bioreactor)", "format": "cell-based", "conditions": "final concentration 0.5% w/v", "protocol": "CHAPS was identified as a potential detergent candidate in the small scale screens and was evaluated at a larger scale (1 L bioreactor) at a final concentration of 0.5% w/v."}, "[3]": {"system": "pseudo rabies virus (PRV)"}, "HEK293 cells [4]": {"system": "HEK293 cells", "assay": "CTAB modifier screen: vg recovery in clarified lysate and loose resin affinity elution", "format": "cell-based", "conditions": "LCD, 0.5% w/v CTAB", "protocol": "The modifiers were selected based on their potential to interfere with and inhibit non-specific binding of rAAV3B capsids to heparin sulfate proteoglycan receptors on cells and cell lysis debris. Using 10 mL cell culture aliquots, modifiers were delivered to the culture at the concentrations shown in Table 3 and mixed for 10 min at room temperature (RT) prior to addition of the CTAB lysis detergent. CTAB was added to a final concentration of 0.5% w/v. Fold improvement in productivity was calculated by dividing total vector genomes (vgs) measured by qPCR quantification of copies of the vector transgene in product produced by a test condition over total vgs produced using 0.5% octoxynol-9 and 0.2% DB as the control lysis and flocculation condition. Total vgs were measured in the clarified lysate and in eluate produced by loose resin affinity purification of the clarified lysate. Conditions which produced greater than 2-fold improvement are highlighted in bold in Table 3."}, "[5]": {"conditions": "cited from earlier work"}, "[6]": {"system": "Murine leukemia virus (MuLV)"}, "[7]": {"conditions": "No modifier, LCD (approximately 12E+6 cells/mL), rAAV3B vector"}, "[8]": {"conditions": "0.025% CTAB, 90 mins, value from titer plate"}, "[9]": {"conditions": "0.05% CTAB, 90 mins, value from large volume plating"}, "[10]": {"conditions": "0.25% CTAB, 90 mins, value from large volume plating"}, "[11]": {"conditions": "modifier 80 μM CSE (chondroitin sulfate E)"}, "[12]": {"conditions": "modifier 80 μM SOS (sucrose octasulfate)"}, "[13]": {"conditions": "modifier 400 ug/mL low molecular weight (LMW) Dextran"}, "[14]": {"conditions": "0.5% octoxynol-9, 90 mins, value from large volume plating"}},
  "note": "Where a name gives a salt, the structure may show the parent alone. Read-outs that look alike come from different tables or passages of the source.",
  "data": [
    {"compound": "C[C@H](CCC(=O)NCCC[N+](C)(C)CCCS(=O)(=O)[O-])[C@H]1CC[C@H]2[C@@H]3[C@H](O)C[C@@H]4C[C@H](O)CC[C@]4(C)[C@H]3C[C@H](O)[C@]12C", "note": "[CHAPS, 3-[(3-cholamidopropyl)dimethylammonio]-1-propanesulfonate]", "values": [
      {"measurement": "Fold improvement over octoxynol-9 and DB control (capsid recovery in clarified lysate)", "setting": "HEK293 cells [1]; 0.2M Arginine modifier, LCD", "value": 1.0, "unit": "fold"},
      {"measurement": "Fold improvement over octoxynol-9 and DB control (capsid recovery in clarified lysate)", "setting": "HEK293 cells [1]; 0.7M NaCl modifier, LCD", "value": 1.6, "unit": "fold"},
      {"measurement": "Fold improvement over octoxynol-9 and DB control (capsid recovery in clarified lysate)", "setting": "HEK293 cells [1]; [7]", "value": 2.1, "unit": "fold"},
      {"measurement": "recovery improvement at larger scale", "setting": "HEK293 cells [2]", "value": "failed to provide the same recovery improvement at large scale as at small scale"}
    ]},
    {"compound": "CCCCCCCCCCCCCCCC[N+](C)(C)C.[Br-]", "note": "[CTAB, cetyltrimethylammonium bromide]", "values": [
      {"measurement": "Process demonstrated viral removal or inactivation (Log reduction >1)", "setting": "[3]; 0.025% CTAB, 90 mins", "value": "Did not demonstrate inactivation"},
      {"measurement": "Minimum reduction values Run 1", "setting": "[3]; [8]", "value": "0.71 ± 0.44", "unit": "Log"},
      {"measurement": "Minimum reduction values Run 2", "setting": "[3]; [8]", "value": "0.71 ± 0.39", "unit": "Log"},
      {"measurement": "Process demonstrated viral removal or inactivation (Log reduction >1)", "setting": "[3]; 0.05% CTAB, 90 mins", "value": "Demonstrated inactivation"},
      {"measurement": "Minimum reduction values Run 1", "setting": "[3]; [9]", "value": "≥4.31 ± 0.27", "unit": "Log"},
      {"measurement": "Minimum reduction values Run 2", "setting": "[3]; [9]", "value": "≥4.67 ± 0.21", "unit": "Log"},
      {"measurement": "Process demonstrated viral removal or inactivation (Log reduction >1)", "setting": "[3]; 0.25% CTAB, 90 mins", "value": "Demonstrated inactivation"},
      {"measurement": "Minimum reduction values Run 1", "setting": "[3]; [10]", "value": "≥4.73 ± 0.25", "unit": "Log"},
      {"measurement": "Minimum reduction values Run 2", "setting": "[3]; [10]", "value": "≥4.73 ± 0.31", "unit": "Log"},
      {"measurement": "fold productivity over octoxynol-9/DB control - affinity elution", "setting": "HEK293 cells [4]; [11]", "value": 0.05, "unit": "fold"},
      {"measurement": "fold productivity over octoxynol-9/DB control - clarified lysate", "setting": "HEK293 cells [4]; [11]", "value": 1.22, "unit": "fold"},
      {"measurement": "fold productivity over octoxynol-9/DB control - affinity elution", "setting": "HEK293 cells [4]; [12]", "value": 3.20, "unit": "fold"},
      {"measurement": "fold productivity over octoxynol-9/DB control - clarified lysate", "setting": "HEK293 cells [4]; [12]", "value": 2.61, "unit": "fold"},
      {"measurement": "fold productivity over octoxynol-9/DB control - affinity elution", "setting": "HEK293 cells [4]; [13]", "value": 1.20, "unit": "fold"},
      {"measurement": "fold productivity over octoxynol-9/DB control - clarified lysate", "setting": "HEK293 cells [4]; [13]", "value": 0.14, "unit": "fold"},
      {"measurement": "fold productivity over octoxynol-9/DB control - affinity elution", "setting": "HEK293 cells [4]; modifier 6 mM ZnSO4", "value": 2.41, "unit": "fold"},
      {"measurement": "fold productivity over octoxynol-9/DB control - clarified lysate", "setting": "HEK293 cells [4]; modifier 6 mM ZnSO4", "value": 1.86, "unit": "fold"},
      {"measurement": "fold productivity over octoxynol-9/DB control - affinity elution", "setting": "HEK293 cells [4]; modifier 50 mM MgSO4", "value": 7.77, "unit": "fold"},
      {"measurement": "fold productivity over octoxynol-9/DB control - clarified lysate", "setting": "HEK293 cells [4]; modifier 50 mM MgSO4", "value": 3.21, "unit": "fold"},
      {"measurement": "fold productivity over octoxynol-9/DB control - affinity elution", "setting": "HEK293 cells [4]; no modifier", "value": 3.81, "unit": "fold"},
      {"measurement": "fold productivity over octoxynol-9/DB control - clarified lysate", "setting": "HEK293 cells [4]; no modifier", "value": 2.81, "unit": "fold"},
      {"measurement": "critical micelle concentration", "setting": "[5]; in water in the presence of MgSO4", "value": "about 0.63 mM"},
      {"measurement": "critical micelle concentration", "setting": "[5]; in water", "value": "about 1.04 mM"},
      {"measurement": "Fold improvement over octoxynol-9 and DB control (capsid recovery in clarified lysate)", "setting": "HEK293 cells [1]; No modifier, HCD (approximately 18E+6 cells/mL), rAAV3B vector", "value": 2.8, "unit": "fold"},
      {"measurement": "Fold improvement over octoxynol-9 and DB control (capsid recovery in clarified lysate)", "setting": "HEK293 cells [1]; [7]", "value": 1.6, "unit": "fold"}
    ]},
    {"compound": "C[C@H](CCC(=O)O)[C@H]1CC[C@H]2[C@@H]3CC[C@@H]4C[C@H](O)CC[C@]4(C)[C@H]3C[C@H](O)[C@]12C", "note": "[DOC, deoxycholic acid sodium salt]", "values": [
      {"measurement": "Fold improvement over octoxynol-9 and DB control (capsid recovery in clarified lysate)", "setting": "HEK293 cells [1]; [7]", "value": 0.1, "unit": "fold"}
    ]},
    {"compound": "CCCCCCCCCCCC(=O)OCCOCCOCCOCCOCCOCCOCCOCCOCCOCCOCCOCCOCCOCCOCCOCCOCCOCCOCCOCCOCC(OCCOCCOCCOCCOCCOCCOCCOCCOCCOCCOCCOCCOCCOCCOCCOCCOCCOCCOCCOCCO)C1OCC(OCCOCCOCCOCCOCCOCCOCCOCCOCCOCCOCCOCCOCCOCCOCCOCCOCCOCCOCCOCCO)C1OCCOCCOCCOCCOCCOCCOCCOCCOCCOCCOCCOCCOCCOCCOCCOCCOCCOCCOCCOCCO", "note": "(stereo not shown) [PS20, polysorbate 20]", "values": [
      {"measurement": "Fold improvement over octoxynol-9 and DB control (capsid recovery in clarified lysate)", "setting": "HEK293 cells [1]; 0.2M Arginine modifier, LCD", "value": 1.8, "unit": "fold"},
      {"measurement": "Fold improvement over octoxynol-9 and DB control (capsid recovery in clarified lysate)", "setting": "HEK293 cells [1]; 0.7M NaCl modifier, LCD", "value": 0.7, "unit": "fold"},
      {"measurement": "Fold improvement over octoxynol-9 and DB control (capsid recovery in clarified lysate)", "setting": "HEK293 cells [1]; [7]", "value": 0.5, "unit": "fold"}
    ]},
    {"compound": "CCCCCCCCCCCCOS(=O)(=O)[O-].[Na+]", "note": "[SDS, sodium dodecyl sulfate]", "values": [
      {"measurement": "Fold improvement over octoxynol-9 and DB control (capsid recovery in clarified lysate)", "setting": "HEK293 cells [1]; 0.2M Arginine modifier, LCD", "value": 0.9, "unit": "fold"},
      {"measurement": "Fold improvement over octoxynol-9 and DB control (capsid recovery in clarified lysate)", "setting": "HEK293 cells [1]; 0.7M NaCl modifier, LCD", "value": 0.2, "unit": "fold"},
      {"measurement": "Fold improvement over octoxynol-9 and DB control (capsid recovery in clarified lysate)", "setting": "HEK293 cells [1]; [7]", "value": 0.1, "unit": "fold"}
    ]},
    {"compound": "CCCCCCCCCCCC(=O)N(C)CC(=O)[O-].[Na+]", "note": "[sarkosyl]", "values": [
      {"measurement": "Fold improvement over octoxynol-9 and DB control (capsid recovery in clarified lysate)", "setting": "HEK293 cells [1]; [7]", "value": 0.3, "unit": "fold"}
    ]},
    {"compound": "Octoxynol-9 [reference compound]", "values": [
      {"measurement": "Process demonstrated viral removal or inactivation (Log reduction >1)", "setting": "[3]; 0.5% octoxynol-9, 90 mins", "value": "Demonstrated inactivation"},
      {"measurement": "Minimum reduction values Run 1", "setting": "[3]; [14]", "value": "≥4.43 ± 0.28", "unit": "Log"},
      {"measurement": "Minimum reduction values Run 2", "setting": "[3]; [14]", "value": "≥4.19 ± 0.18", "unit": "Log"},
      {"measurement": "Minimum reduction values Run 1", "setting": "[6]", "value": "≥4.43 ± 0.25", "unit": "Log"},
      {"measurement": "Minimum reduction values Run 2", "setting": "[6]", "value": "≥4.49 ± 0.27", "unit": "Log"},
      {"measurement": "Process demonstrated viral removal or inactivation (Log reduction >1)", "setting": "[6]", "value": "Demonstrated inactivation"}
    ]}
  ]
}
